These results are taken from article PMC10855902 (International Journal of Molecular Sciences, 2024).

In the assay the test system is anti-EGF rabbit polyclonal antibodies (Abcam 9695). The experiment in a line: Dot blot of cellulose-immobilized EGF decapeptides with anti-EGF polyclonal antibodies.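 As to Intensity (Staining Value): higher gray value means stronger antibody binding with above 120 very strong.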 In kind it is binding. To be noted: for Intensity (ability to interact with polyclonal antibodies) / interaction with polyclonal anti-EGF antibodies (in words): peptide on cellulose matrix; for Intensity (ability to interact with polyclonal antibodies): antibody 1:1000, 1 h room temperature; for Intensity (Staining Value): scanned spot, 256 gray scale (ImageJ). On the procedure: Dot blot reactions were performed using primary anti-EGF rabbit polyclonal antibodies (Abcam 9695) (Cambridge, UK) and secondary goat anti-rabbit antibodies conjugated with HRP (Abcam 205718). The procedure for using the dot blot method to analyze peptides immobilized on a cellulose matrix through a triazine linker was optimized in a previous study by the authors and ensures the elimination of non-specific impacts.
The solution was then removed, and the membranes were treated overnight at room temperature with blocking buffer (3% BSA in PBS, 40 mL, pH 7.4). The cellulose sheets were then washed with PBS buffer (40 mL, 5 min, pH 7.4). […] The membranes were then washed with Tween-80 solution in PBS (0.4%, 40 mL, 2 × 5 min) and PBS (40 mL, 5 min). Goat Anti-Rabbit IgG antibodies were conjugated with HRP (Abcam 205718, 20 μL) diluted 1:1000 in 1% BSA in PBS (20 mL, pH 7.4) and then incubated with cellulose sheets for 30 min at room temperature. The membranes were then washed with Tween-80 solution in PBS (0.4%, 40 mL, 2 × 5 min) and PBS (40 mL, 5 min). Visualization of the reactions was performed using 4-chloro-1-naphtol (Sigma–Aldrich). The cellulose sheets were placed into 0.15 mg/mL solution of 4-chloro-1-naphtol in MeOH:PBS (1:5, 15 mL) with the addition of 7.5 μL of H2O2; reaction time was 30 min. The membranes were washed with distilled water, air-dried, and scanned. In places where immunological complexes developed, blue precipitate was observed. The applied dot blot test procedure ensures the elimination of non-specific interactions. Additionally, using the same SPOT synthesis procedure, a library of type IV collagen fragments was obtained. […] The gray levels of the immunological reactions were determined using ImageJ Version 1.53n7 (https://imagej.nih.gov/ij/index.html, accessed on 17 October 2021) computer imaging software.

As to H-^1NSDSECPLSH^10-matrix [A1], the “Intensity (ability to interact with polyclonal antibodies)” value is “− ((−), where the color intensity value was <45)” and the “Intensity (Staining Value)” value turned out to be 14.8.

For H-^2SDSECPLSHD^11-matrix [A2], the “Intensity (ability to interact with polyclonal antibodies)” value is recorded as “− ((−), where the color intensity value was <45)” and the “Intensity (Staining Value)” value is on record as 22.3.

Regarding H-^3DSECPLSHDG^12-matrix [A3], the “Intensity (ability to interact with polyclonal antibodies)” value is “+/− (moderately strong (+/−), for which the color intensity value was in the range of 90–45)” and the “Intensity (Staining Value)” value is given as 71.7.

In the case of H-^4SECPLSHDGY^13-matrix [A4], the “Intensity (ability to interact with polyclonal antibodies)” value was “+/− (moderately strong (+/−), for which the color intensity value was in the range of 90–45)” and the “Intensity (Staining Value)” value is 55.2.

Take H-^5ECPLSHDGYC^14-matrix [A5]: the “Intensity (ability to interact with polyclonal antibodies)” value is given as “+/− (moderately strong (+/−), for which the color intensity value was in the range of 90–45)”.

With H-^6CPLSHDGYCL^15-matrix [A6], the “Intensity (ability to interact with polyclonal antibodies)” value is reported as “+/− (moderately strong (+/−), for which the color intensity value was in the range of 90–45)”.

Turning to H-^7PLSHDGYCLH^16-matrix [A7], the “Intensity (ability to interact with polyclonal antibodies)” value is listed as “+/− (moderately strong (+/−), for which the color intensity value was in the range of 90–45)” and the “Intensity (Staining Value)” value worked out at 62.2.

Consider H-^8LSHDGYCLHD^17-matrix [A8], for which the “Intensity (ability to interact with polyclonal antibodies)” value is recorded as “+/− (moderately strong (+/−), for which the color intensity value was in the range of 90–45)” and the “Intensity (Staining Value)” value worked out at 59.3.

For H-^9SHDGYCLHDG^18-matrix [A9], the “Intensity (ability to interact with polyclonal antibodies)” value was “+/− (moderately strong (+/−), for which the color intensity value was in the range of 90–45)” and the “Intensity (Staining Value)” value was found to be 63.8.

For the substance H-^10HDGYCLHDGV^19-matrix [A10], the “Intensity (ability to interact with polyclonal antibodies)” value is “+ (strong (+), for which the staining intensity value was in the range of 120–90)” and the “Intensity (Staining Value)” value is 91.3.

For H-^11DGYCLHDGVC^20-matrix [A11], the “Intensity (ability to interact with polyclonal antibodies)” value is “+ (strong (+), for which the staining intensity value was in the range of 120–90)” and the “Intensity (Staining Value)” value was found to be 90.5.

Consider H-^12GYCLHDGVCM^21-matrix [A12], for which the “Intensity (ability to interact with polyclonal antibodies)” value is “+ (strong (+), for which the staining intensity value was in the range of 120–90)” and the “Intensity (Staining Value)” value is reported as 92.4.

In the case of H-^13YCLHDGVCMY^22-matrix [A13], the “Intensity (ability to interact with polyclonal antibodies)” value is listed as “+ (strong (+), for which the staining intensity value was in the range of 120–90)” and the “Intensity (Staining Value)” value came out at 93.0.

Take H-^14CLHDGVCMYI^23-matrix [A14]: the “interaction with polyclonal anti-EGF antibodies (in words)” value (from here on “interaction”) was “inactive”; the “Intensity (ability to interact with polyclonal antibodies)” value was “− ((−), where the color intensity value was <45)”; the “Intensity (Staining Value)” value is 31.6.

As for H-^15LHDGVCMYIE^24-matrix [A15], the “interaction” value is given as “no affinity for antibodies”; the “Intensity (ability to interact with polyclonal antibodies)” value is “− ((−), where the color intensity value was <45)”; the “Intensity (Staining Value)” value is recorded as 41.6.

Regarding H-^16HDGVCMYIEA^25-matrix [A16], the “interaction” value is given as “low affinity”; the “Intensity (ability to interact with polyclonal antibodies)” value is “− ((−), where the color intensity value was <45)”; the “Intensity (Staining Value)” value was found to be 44.8.

With H-^17DGVCMYIEAL^26-matrix [A17], the “Intensity (ability to interact with polyclonal antibodies)” value is “+/− (moderately strong (+/−), for which the color intensity value was in the range of 90–45)” and the “Intensity (Staining Value)” value amounted to 88.9.

As for H-^18GVCMYIEALD^27-matrix [A18], the “Intensity (ability to interact with polyclonal antibodies)” value is recorded as “+ (strong (+), for which the staining intensity value was in the range of 120–90)” and the “Intensity (Staining Value)” value is 116.0.

On to H-^19VCMYIEALDK^28-matrix [A19], for which the “Intensity (ability to interact with polyclonal antibodies)” value is on record as “++ (very strong (++), for which the staining intensity value was >120)” and the “Intensity (Staining Value)” value came to 128.0.

Turning to H-^20CMYIEALDKY^29-matrix [A20], the “Intensity (ability to interact with polyclonal antibodies)” value is reported as “++ (very strong (++), for which the staining intensity value was >120)” and the “Intensity (Staining Value)” value was 132.8.

Take H-^21MYIEALDKYA^30-matrix [B1]: the “Intensity (ability to interact with polyclonal antibodies)” value is reported as “++ (very strong (++), for which the staining intensity value was >120)” and the “Intensity (Staining Value)” value was 130.3.

Consider H-^22YIEALDKYAC^31-matrix [B2], for which the “Intensity (ability to interact with polyclonal antibodies)” value is on record as “++ (very strong (++), for which the staining intensity value was >120)” and the “Intensity (Staining Value)” value is on record as 122.4.

On to H-^23IEALDKYACN^32-matrix [B3], for which the “interaction” value is given as “lower affinity for antibodies”; the “Intensity (ability to interact with polyclonal antibodies)” value is given as “+/− (moderately strong (+/−), for which the color intensity value was in the range of 90–45)”; the “Intensity (Staining Value)” value was 63.8.

For the substance H-^24EALDKYACNC^33-matrix [B4], the “interaction” value was “no affinity for antibodies”; the “Intensity (ability to interact with polyclonal antibodies)” value was “− ((−), where the color intensity value was <45)”; the “Intensity (Staining Value)” value amounted to 30.5.

On to H-^25ALDKYACNCV^34-matrix [B5], for which the “Intensity (ability to interact with polyclonal antibodies)” value is “− ((−), where the color intensity value was <45)” and the “Intensity (Staining Value)” value is 29.6.

On to H-^26LDKYACNCVV^35-matrix [B6], for which the “Intensity (ability to interact with polyclonal antibodies)” value is listed as “+/− (moderately strong (+/−), for which the color intensity value was in the range of 90–45)” and the “Intensity (Staining Value)” value came to 46.6.

Regarding H-^27DKYACNCVVG^36-matrix [B7], the “Intensity (ability to interact with polyclonal antibodies)” value is listed as “+/− (moderately strong (+/−), for which the color intensity value was in the range of 90–45)” and the “Intensity (Staining Value)” value came to 55.3.

Take H-^28KYACNCVVGY^37-matrix [B8]: the “Intensity (ability to interact with polyclonal antibodies)” value is listed as “+/− (moderately strong (+/−), for which the color intensity value was in the range of 90–45)” and the “Intensity (Staining Value)” value was 63.5.

Take H-^29YACNCVVGYI^38-matrix [B9]: the “Intensity (ability to interact with polyclonal antibodies)” value is recorded as “+ (strong (+), for which the staining intensity value was in the range of 120–90)” and the “Intensity (Staining Value)” value is on record as 91.1.

In the case of H-^30ACNCVVGYIG^39-matrix [B10], the “Intensity (ability to interact with polyclonal antibodies)” value is reported as “+/− (moderately strong (+/−), for which the color intensity value was in the range of 90–45)” and the “Intensity (Staining Value)” value came out at 58.5.

As to H-^31CNCVVGYIGE^40-matrix [B11], the “Intensity (ability to interact with polyclonal antibodies)” value was “+/− (moderately strong (+/−), for which the color intensity value was in the range of 90–45)” and the “Intensity (Staining Value)” value is recorded as 60.3.

Take H-^32NCVVGYIGER^41-matrix [B12]: the “Intensity (ability to interact with polyclonal antibodies)” value was “+/− (moderately strong (+/−), for which the color intensity value was in the range of 90–45)” and the “Intensity (Staining Value)” value came to 56.3.
